In ChEMBL document CHEMBL4706554 (Eur J Med Chem, 2020):

Experiments:
Type in all cases: cell-based
[1] = biological target: T1, Casein kinase II subunit alpha (Homo sapiens, UniProt P68400); test: Displacement of fluorescent tracer from full-length human C-terminal NanoLuc-tagged CK2alpha expressed in HEK293T permeabilized cells measured after 2 hrs by NanoBRET assay
[2] = biological target: T2, Casein kinase II subunit alpha' (Homo sapiens, UniProt P19784); test: Displacement of fluorescent tracer from full-length human C-terminal NanoLuc-tagged CK2alpha' expressed in HEK293T cells measured after 2 hrs by NanoBRET assay
T2 sequence (P19784 whole entry): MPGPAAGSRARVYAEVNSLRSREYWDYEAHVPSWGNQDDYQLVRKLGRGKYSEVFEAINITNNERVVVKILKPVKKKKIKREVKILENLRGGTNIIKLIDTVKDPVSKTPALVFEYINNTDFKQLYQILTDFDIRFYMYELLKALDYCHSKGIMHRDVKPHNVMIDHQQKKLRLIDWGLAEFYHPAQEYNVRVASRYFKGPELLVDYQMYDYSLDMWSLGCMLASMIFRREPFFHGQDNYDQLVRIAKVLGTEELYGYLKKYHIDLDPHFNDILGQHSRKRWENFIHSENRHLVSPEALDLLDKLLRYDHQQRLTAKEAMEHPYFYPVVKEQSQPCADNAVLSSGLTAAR

[3] = biological target: T1, Casein kinase II subunit alpha; test: Displacement of fluorescent tracer from full-length human C-terminal NanoLuc-tagged CK2alpha expressed in HEK293T cells measured after 2 hrs by NanoBRET assay
[4] = biological target: T2, Casein kinase II subunit alpha'; test: Displacement of fluorescent tracer from full-length human C-terminal NanoLuc-tagged CK2alpha' expressed in HEK293T permeabilized cells measured after 2 hrs by NanoBRET assay

T1 sequence (P68400 whole entry): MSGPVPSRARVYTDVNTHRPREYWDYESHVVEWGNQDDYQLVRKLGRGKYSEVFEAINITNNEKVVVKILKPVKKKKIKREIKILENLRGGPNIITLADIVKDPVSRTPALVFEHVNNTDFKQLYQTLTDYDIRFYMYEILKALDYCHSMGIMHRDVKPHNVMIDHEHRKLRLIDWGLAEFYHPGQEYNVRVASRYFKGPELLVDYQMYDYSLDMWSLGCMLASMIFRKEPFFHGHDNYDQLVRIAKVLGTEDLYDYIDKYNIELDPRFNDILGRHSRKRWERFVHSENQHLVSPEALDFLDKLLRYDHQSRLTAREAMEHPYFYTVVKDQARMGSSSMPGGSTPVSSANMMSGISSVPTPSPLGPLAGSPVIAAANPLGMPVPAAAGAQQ

Structure (SMILES) | IC50 [1] | IC50 [2] | IC50 [3] | IC50 [4]
COC(=O)c1ccc2cc1OCCOCCNc1ccn3ncc-2c3n1 | 13.2 µM | > 50 µM | > 50 µM | > 50 µM
O=C(O)c1ccc2cc1OCCOCCNc1ccn3ncc-2c3n1 | 0.075 µM |  |  | 0.303 µM
